{"source": "paper PMC3796549", "about": "(PLoS ONE, 2013)", "key": {"PtpB from Mtb": {"molecular_target": "T1, PtpB from Mtb (Mycobacterium tuberculosis, UniProt P96830)", "T1 construct": "made in house", "T1 sequence (P96830 1-276)": "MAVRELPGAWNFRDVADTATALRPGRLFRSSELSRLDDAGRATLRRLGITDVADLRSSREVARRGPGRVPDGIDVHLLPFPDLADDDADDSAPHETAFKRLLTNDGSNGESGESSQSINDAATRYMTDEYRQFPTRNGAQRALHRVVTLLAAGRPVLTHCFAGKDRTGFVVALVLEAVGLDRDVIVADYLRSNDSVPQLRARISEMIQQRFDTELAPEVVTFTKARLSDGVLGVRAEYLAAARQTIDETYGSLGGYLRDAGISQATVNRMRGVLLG", "assay": "biochemical", "assay_type": "biochemical"}, "human PTP1B": {"molecular_target": "T2, human PTP1B (Homo sapiens, UniProt P18031)", "T2 construct": "made in house", "T2 sequence (P18031 1-435)": "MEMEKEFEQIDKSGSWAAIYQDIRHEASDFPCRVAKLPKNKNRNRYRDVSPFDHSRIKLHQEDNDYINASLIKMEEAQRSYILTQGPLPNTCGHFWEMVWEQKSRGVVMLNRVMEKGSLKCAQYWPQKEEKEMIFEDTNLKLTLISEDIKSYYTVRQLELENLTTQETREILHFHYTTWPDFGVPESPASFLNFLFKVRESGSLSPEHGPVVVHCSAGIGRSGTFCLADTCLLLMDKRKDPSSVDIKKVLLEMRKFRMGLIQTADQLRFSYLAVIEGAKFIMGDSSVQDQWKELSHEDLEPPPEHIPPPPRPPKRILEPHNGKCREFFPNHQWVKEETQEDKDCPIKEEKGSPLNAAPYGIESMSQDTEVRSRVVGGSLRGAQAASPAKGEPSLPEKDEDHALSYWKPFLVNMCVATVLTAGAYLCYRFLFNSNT", "assay": "biochemical", "details": "for IC50: pNPP substrate, mean ± SD, 3 experiments"}, "PtpB [1]": {"molecular_target": "T3, PtpB (Mycobacterium tuberculosis, UniProt P96830)", "T3 construct": "made in house", "T3 sequence (P96830 1-276)": "as the sequence (P96830 1-276) above", "assay": "biochemical", "details": "for Ki: pNPP 0.2-12.8 mM, mean ± SD; for Type of inhibition: with respect to substrate pNPP"}, "trypsin": {"molecular_target": "T4, trypsin (Sus scrofa, UniProt P00761)", "T4 construct": "purchased Promega", "T4 sequence (P00761 9-231)": "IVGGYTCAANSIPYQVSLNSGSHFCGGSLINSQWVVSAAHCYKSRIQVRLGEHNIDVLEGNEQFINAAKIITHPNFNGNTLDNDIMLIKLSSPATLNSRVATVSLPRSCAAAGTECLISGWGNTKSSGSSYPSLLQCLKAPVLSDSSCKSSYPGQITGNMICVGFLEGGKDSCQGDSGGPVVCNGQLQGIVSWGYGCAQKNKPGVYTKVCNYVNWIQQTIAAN", "assay": "Inhibition of trypsin by the inhibitor itself", "assay_type": "biochemical"}, "PtpB [2]": {"molecular_target": "T3, PtpB", "details": "300 µM inhibitor, PtpB 5 µM, 3 hours 37 °C"}, "[3]": {"details": "pNPP substrate, 37 °C, imidazole pH 7.0, mean ± SD, 3 experiments"}}, "note": "Like-named read-outs stand apart in the source and are kept apart here."}
{"smiles": "COc1ccc(CCC(=O)c2c(O)cc(OC)c(CC=C(C)C)c2OC)cc1CC=C(C)CCC=C(C)C", "note": "[59-triMe, 4,2’,4’-trimethoxy-6’-hydroxy,3’-prenyl-3-geranyldihydrochalcone]", "values": [{"measurement": "IC50", "setting": "PtpB from Mtb; [3]", "value": "> 100", "unit": "µM"}]}
{"smiles": "COc1c(C)c(OC(C)=O)c2c(c1-c1c(OC)c(C)c(OC(C)=O)c3c1C(=O)c1cc(C)cc(OC(C)=O)c1C3=O)C(=O)c1cc(C)cc(OC(C)=O)c1C2=O", "note": "[Ac3, tetra-acetyl-trachypone]", "values": [{"measurement": "SI (Selectivity index)", "setting": "human PTP1B", "value": 0.9}, {"measurement": "IC50", "setting": "human PTP1B", "value": "31.2 ± 2.7", "unit": "µM"}, {"measurement": "IC50", "setting": "PtpB from Mtb; [3]", "value": "33.2 ± 4.9", "unit": "µM"}, {"measurement": "IC50 / Ki", "setting": "PtpB [1]", "value": 1.9}, {"measurement": "Ki", "setting": "PtpB [1]", "value": "17.1 ± 4.5", "unit": "µM"}, {"measurement": "Type of inhibition", "setting": "PtpB [1]", "value": "Competitive"}]}
{"smiles": "C[N+](C)(C)CCc1c[nH]c2ccc(O)cc12.[I-]", "note": "[Buf-I, bufotenine CH3I]", "values": [{"measurement": "IC50", "setting": "PtpB from Mtb; [3]", "value": "> 100", "unit": "µM"}, {"measurement": "PtpB enzymatic inhibition (in words)", "setting": "PtpB from Mtb; up to 100 µM", "value": "not active"}]}
{"smiles": "O=C(O)/C=C/c1ccc(OC2O[C@H](CO)[C@@H](O)[C@H](O)[C@H]2O)c(O)c1", "note": "(some centres unmarked) [Caf, 4-O-glucosyl caffeic acid]", "values": [{"measurement": "IC50", "setting": "PtpB from Mtb; [3]", "value": "> 100", "unit": "µM"}, {"measurement": "PtpB enzymatic inhibition (in words)", "setting": "PtpB from Mtb; up to 100 µM", "value": "not active"}]}
{"smiles": "O=C(/C=C/c1ccc(O)c(O)c1)O[C@@H]1C[C@@](OC(=O)/C=C/c2ccc(O)c(O)c2)(C(=O)O)C[C@@H](O)[C@@H]1O", "note": "[Cyn, cynarin]", "values": [{"measurement": "IC50", "setting": "PtpB from Mtb; [3]", "value": "> 100", "unit": "µM"}, {"measurement": "PtpB enzymatic inhibition (in words)", "setting": "PtpB from Mtb; up to 100 µM", "value": "not active"}]}
{"smiles": "CC(C)=CCC/C(C)=C/Cc1cc(CCC(=O)c2c(O)cc(O)c(CC=C(C)C)c2O)ccc1O", "note": "[Ega1, 4,2’,4’,6’-tetrahydroxy-3’-prenyl-3-geranyldihydrochalcone]", "values": [{"measurement": "SI (Selectivity index)", "setting": "human PTP1B", "value": 1.6}, {"measurement": "IC50", "setting": "human PTP1B", "value": "20.9 ± 2.8", "unit": "µM"}, {"measurement": "IC50", "setting": "PtpB from Mtb; [3]", "value": "13.4 ± 2.6", "unit": "µM"}, {"measurement": "IC50 / Ki", "setting": "PtpB [1]", "value": 0.9}, {"measurement": "Ki", "setting": "PtpB [1]", "value": "14.5 ± 2.3", "unit": "µM"}, {"measurement": "Type of inhibition", "setting": "PtpB [1]", "value": "Non-competitive"}]}
{"smiles": "COc1ccc([C@@H]2CC(=O)c3c(O)cc(O[C@@H]4O[C@H](CO[C@@H]5O[C@@H](C)[C@H](O)[C@@H](O)[C@H]5O)[C@@H](O)[C@H](O)[C@H]4O)cc3O2)cc1O", "note": "[Hesp, hesperidin]", "values": [{"measurement": "IC50", "setting": "PtpB from Mtb; [3]", "value": "> 100", "unit": "µM"}, {"measurement": "PtpB enzymatic inhibition (in words)", "setting": "PtpB from Mtb; up to 100 µM", "value": "not active"}]}
{"smiles": "CC(C)=CCc1c(O)ccc(C(=O)[C@H]2[C@@H](c3c(O)cc(/C=C/c4ccc(O)cc4O)cc3O)C=C(C)C[C@@H]2c2ccc(O)cc2O)c1O", "note": "[KuwE, Kuwanol E]", "values": [{"measurement": "SI (Selectivity index)", "setting": "human PTP1B", "value": 5.1}, {"measurement": "IC50", "setting": "human PTP1B", "value": "9.6 ± 2.6", "unit": "µM"}, {"measurement": "IC50", "setting": "PtpB from Mtb; [3]", "value": "1.9 ± 0.5", "unit": "µM"}, {"measurement": "Inhibition of trypsin", "setting": "trypsin", "value": "not able to inhibit trypsin"}, {"measurement": "Protection of PtpB catalytic site from proteolytic cleavage by trypsin (fragments m/z 1953 and m/z 2224)", "setting": "PtpB [2]", "value": "protecting it from the proteolytic cleavage by trypsin"}, {"measurement": "IC50 / Ki", "setting": "PtpB [1]", "value": 1.2}, {"measurement": "Ki", "setting": "PtpB [1]", "value": "1.6 ± 0.1", "unit": "µM"}, {"measurement": "Type of inhibition", "setting": "PtpB [1]", "value": "Competitive"}]}
{"smiles": "COc1c(C2COc3cc(O)c(CC=C(C)C)c(O)c3C2=O)ccc(O)c1CC=C(C)C", "note": "(centres unmarked) [M2, isosophoranone]", "values": [{"measurement": "IC50", "setting": "PtpB from Mtb; [3]", "value": "19.8 ± 2.3", "unit": "µM"}]}
{"smiles": "COc1c(C2COc3cc(O)c(CCC(C)C)c(O)c3C2=O)ccc(O)c1CCC(C)C", "note": "(centres unmarked) [M2H, tetra-hydro-isosophoranone]", "values": [{"measurement": "IC50", "setting": "PtpB from Mtb; [3]", "value": "69.4 ± 4.5", "unit": "µM"}]}
{"smiles": "CC(C)=CCc1c(C)c(CC=C(C)C)c2c(c1O)C(=O)c1c(O)cc(O)c(CC=C(C)C)c1C2", "note": "[PirIII, 1,3,8-trihydroxy-6-methyl-4,5,7-triprenylanthrone]", "values": [{"measurement": "IC50", "setting": "human PTP1B", "value": "11.8 ± 3.5", "unit": "µM"}, {"measurement": "IC50", "setting": "PtpB from Mtb; [3]", "value": "5.4 ± 0.6", "unit": "µM"}, {"measurement": "IC50 / Ki", "setting": "PtpB [1]", "value": 0.8}, {"measurement": "Ki", "setting": "PtpB [1]", "value": "6.6 ± 2.7", "unit": "µM"}, {"measurement": "Type of inhibition", "setting": "PtpB [1]", "value": "Non-competitive"}]}
{"smiles": "COc1c(C)c(O)c2c(c1-c1c(OC)c(C)c(O)c3c1C(=O)c1cc(C)cc(O)c1C3=O)C(=O)c1cc(C)cc(O)c1C2=O", "note": "[compound 6016, trachypone]", "values": [{"measurement": "SI (Selectivity index)", "setting": "human PTP1B", "value": 0.4}, {"measurement": "IC50", "setting": "human PTP1B", "value": "7.1 ± 1.4", "unit": "µM"}, {"measurement": "IC50", "setting": "PtpB from Mtb; [3]", "value": "19.2 ± 6.7", "unit": "µM"}, {"measurement": "IC50 / Ki", "setting": "PtpB [1]", "value": 1.7}, {"measurement": "Ki", "setting": "PtpB [1]", "value": "11.5 ± 1.7", "unit": "µM"}, {"measurement": "Type of inhibition", "setting": "PtpB [1]", "value": "Competitive"}]}
{"smiles": "O[C@@H]1OC[C@H](Cc2ccc3c(c2)OCO3)[C@H]1Cc1ccc2c(c1)OCO2", "note": "[α-Cub, α-cubebin]", "values": [{"measurement": "PtpB enzymatic inhibition (in words)", "setting": "PtpB from Mtb", "value": "not active"}, {"measurement": "IC50", "setting": "PtpB from Mtb; pH 7", "value": "> 100", "unit": "µM"}]}
{"smiles": "CC(C)=CCc1c(C)c(CC=C(C)C)c2c(c1O)C(=O)c1c(O)cc(O)c(CC=C(CO)CO)c1C2", "note": "[∆3, 1,3,8-trihydroxy-6-methyl-5,7-diprenyl-4-γ,γ’dihydroxyprenyl-anthrone]", "values": [{"measurement": "SI (Selectivity index)", "setting": "human PTP1B", "value": 0.6}, {"measurement": "IC50", "setting": "human PTP1B", "value": "14.7 ± 2.1", "unit": "µM"}, {"measurement": "IC50", "setting": "PtpB from Mtb; [3]", "value": "26.7 ± 0.6", "unit": "µM"}, {"measurement": "IC50 / Ki", "setting": "PtpB [1]", "value": 2.0}, {"measurement": "Ki", "setting": "PtpB [1]", "value": "13.4 ± 1.5", "unit": "µM"}, {"measurement": "Type of inhibition", "setting": "PtpB [1]", "value": "Non-competitive"}]}
